In patent US4889857A, “Quinolonecarboxylic acid compounds and pharmaceutical use thereof” (Yoshitomi Pharmaceutical Industries, Ltd., priority 1987, dated 1989):
≈ marks a conversion by molar mass, not a printed value. Read-outs that look alike come from different tables or passages of the source.

Key:
[1] = test system: Streptococcus pyogenes E-14; assay: Antibacterial activity in vitro (MIC); type: cell-based
[2] = test system: Streptocccus pneumoniae Type 1; assay: Antibacterial activity in vitro (MIC); type: cell-based
[3] = test system: Staphylococcus aureus 308A-1; assay: Antibacterial activity in vitro (MIC); type: cell-based
[4] = test system: Aerococcus viridans IFO 12219; assay: microbe, parasite or virus in culture; details: IFO12219
E. coli KC-14 [5] = assay: MIC of the infecting organism (Experiment 2); type: cell-based; details: Escherichia coli, KC14
Description: (§1) Experimental infection was caused by inoculating male mice intraperitoneally with each organism. Each of the test compounds was administered orally to the mice, one hour after the inoculation. The therapeutic effect of each compounds was judged by using a 50% effective dose (ED50) from the survival rate on day 7 after injection by the Probit method as described in Proc. Soc. Exp. Biol. Med., Vol. 57, p.261-264, 1944. The Minimum inhibitory concentrations (MIC) were also measured.

S. aureus Smith [6] = assay: MIC of the infecting organism (Experiment 2); type: cell-based; details: Staphylococcus aureus; Table 2; read-out: MIC
Description: as §1

S. pyogenes C-203 [7] = assay: MIC of the infecting organism (Experiment 2); type: cell-based; details: Streptococcus pyogenes, C203; Table 2
Description: (§2) Experimental infection was caused by inoculating male mice intraperitoneally with each organism. Each of the test compounds was administered orally to the mice, one hour after the inoculation. […] The Minimum inhibitory concentrations (MIC) were also measured.

S. pneumoniae Type III [8] = assay: MIC of the infecting organism (Experiment 2); type: cell-based; details: Streptococcus pneumoniae; Table 2
Description: as §2

S. aureus 109(MRSA) [9] = assay: MIC of the infecting organism (Experiment 2); type: cell-based; details: Staphylococcus aureus, Table 2
Description: as §2

[10] = test system: Enterobacter cloacae IFO 12937; assay: Antibacterial activity in vitro (MIC); type: cell-based
[11] = test system: Enterococcus faecalis LS-101; assay: Antibacterial activity in vitro (MIC); type: cell-based
[12] = test system: Staphylococcus epidermidis ATCC 12983; assay: Antibacterial activity in vitro (MIC); type: cell-based
E. coli KC-14 [13] = assay: Protective effect against experimental infection in mice; type: in vivo; details: oral, 1 h after i.p. inoculation of 5.75 × 10^4 cells/mouse [488 LD50] with mucin; survival day 7; 95% confidence limit
Description: as §1
(§3) (The overnight cultures of test organisms with an asterisk (*) were
(§4) diluted with 50% mucin and 0.5 ml of each was injected intraperitoneally
(§5) into mice. A double asterisk (**) means a 95% confidence limit. MRSA mean
(§6) methycillinresistant Staphylococcus aureus.)

S. pyogenes C-203 [14] = assay: as above; type: in vivo; details: oral, 1 h after i.p. inoculation of 4.42 × 10^4 cells/mouse [680 LD50]; survival day 7; 95% confidence limit
Description: as §1, §3, §4, §5, §6

S. aureus Smith [15] = assay: as above; type: in vivo; details: oral, 1 h after i.p. inoculation of 2.13 × 10^6 cells/mouse [792 LD50] with mucin; survival day 7; 95% confidence limit
Description: as §1, §3, §4, §5, §6

S. pneumoniae Type III [16] = assay: as above; type: in vivo; details: oral, 1 h after i.p. inoculation of 6.0 × 10^2 cells/mouse [12 LD50]; survival day 7; 95% confidence limit
Description: as §1, §3, §4, §5, §6

S. aureus 109(MRSA) [17] = assay: as above; type: in vivo; details: oral, 1 h after i.p. inoculation of 4.93 × 10^8 cells/mouse [5.7 LD50] with mucin; survival day 7; 95% confidence limit
Description: as §1, §3, §4, §5, §6

[18] = test system: Alcaligenes faecalis NCTC 415; assay: Antibacterial activity in vitro (MIC); type: cell-based; details: NCTC415, inoculum 10^6 cells/ml
[19] = test system: Aerobacter aerogenes IFO 12979; assay: Antibacterial activity in vitro (MIC); type: cell-based; details: Klebsiella aerogenes, IFO12979
[20] = test system: Pseudomonas aeruginosa IFO 12582; assay: Antibacterial activity in vitro (MIC); type: cell-based
Description: (§7) The antibacterial activities in vitro (minimum inhibitory concentration, MIC, μg/ml) of the test compounds were measured according to the standard method of the Japanese Chemotherapy Society (Chemotherapy, Vol. 23, p.1126, 1974).
(§8) (Inoculum size: 10^6 cells/ml, Organisms with asterisk (*) were
(§9) cultivated in a 10% horse bloodadded medium.)

[21] = test system: Pediococcus damnosus IFO 3895; assay: Antibacterial activity in vitro (MIC); type: cell-based
Description: as §7, §8, §9

Klebsiella pneumoniae DT = assay: Antibacterial activity in vitro (MIC); type: cell-based
Description: as §7, §8, §9

[22] = test system: Acinetobacter calcoaceticus ATCC 13006; assay: Antibacterial activity in vitro (MIC); type: cell-based
Description: as §7, §8, §9

Escherichia coli O-111 = assay: Antibacterial activity in vitro (MIC); type: cell-based; details: O111, inoculum 10^6 cells/ml
Description: as §7, §8, §9

[23] = test system: Pseudomonas putida IFO 12996; assay: Antibacterial activity in vitro (MIC); type: cell-based; details: IFO12996, inoculum 10^6 cells/ml, read-out: MIC
Description: as §7, §8, §9

Escherichia coli T-7 = assay: Antibacterial activity in vitro (MIC); type: cell-based; details: T7, inoculum 10^6 cells/ml
Description: as §7, §8, §9

[24] = test system: Streptococcus viridans America; assay: Antibacterial activity in vitro (MIC); type: cell-based
Description: as §7, §8, §9

[25] = test system: Pseudomonas aeruginosa U-31; assay: Antibacterial activity in vitro (MIC); type: cell-based; details: U31, inoculum 10^6 cells/ml, read-out: MIC
Description: as §7, §8, §9

Shigella flexneri EW-10 = assay: Antibacterial activity in vitro (MIC); type: cell-based; details: EW10, inoculum 10^6 cells/ml
Description: as §7, §8, §9

[26] = test system: Shigella typhosa Boxhill-58; assay: Antibacterial activity in vitro (MIC); type: cell-based
Description: as §7, §8, §9

[27] = test system: Flavobacterium meningosepticum IFO 12535; assay: Antibacterial activity in vitro (MIC); type: cell-based; details: Elizabethkingia meningoseptica, IFO12535; inoculum 10^6 cells/ml
Pseudomonas cepacia 739 = assay: Antibacterial activity in vitro (MIC); type: cell-based; details: Burkholderia cepacia, inoculum 10^6 cells/ml
[28] = test system: Streptococcus sarivaris IFO 13956; assay: Antibacterial activity in vitro (MIC); type: cell-based
[29] = test system: Streptococcus pyogenes S-8; assay: Antibacterial activity in vitro (MIC); type: cell-based
[30] = inoculum 10^6 cells/ml, 10% horse blood-added medium, read-out: MIC
[31] = inoculum 10^6 cells/ml, read-out: MIC

Structure (SMILES)	MIC [4] [µg/mL]	MIC (S. aureus Smith [6]) [µg/mL]	MIC (S. pyogenes C-203 [7]) [µg/mL]	MIC (S. pneumoniae Type III [8]) [µg/mL]	MIC (S. aureus 109(MRSA) [9]) [µg/mL]	ED50 (E. coli KC-14 [13])	ED50 (S. pyogenes C-203 [14])	ED50 (S. aureus Smith [15])	ED50 (S. pneumoniae Type III [16])	ED50 (S. aureus 109(MRSA) [17])	MIC [18] [µg/mL]	MIC (Escherichia coli O-111) [µg/mL]	MIC [23] [µg/mL]	MIC (Escherichia coli T-7) [µg/mL]	MIC [25] [µg/mL]	MIC (Shigella flexneri EW-10) [µg/mL]	MIC [26] [µg/mL]	MIC [27] [µg/mL]	MIC (Pseudomonas cepacia 739) [µg/mL]	also measured
CNCC1CN(c2c(F)cc3c(=O)c(C(=O)O)cn(C4CC4)c3c2F)CCO1 (centres unmarked) [Compound A, 1-cyclopropyl-6,8-difluoro-1,4,-dihydro-7-[2-(methylaminomethyl)morpholino]-4-oxoquinoline-3-carboxylic acid]	0.1 (≈ 0.254 µM)	0.012	0.05	0.05	0.2	0.028(0.019-0.042) mg/mouse	0.214(0.124-0.388) mg/mouse	0.068(0.044-0.104) mg/mouse	0.707(0.453-1.104) mg/mouse	0.061(0.041-0.093) mg/mouse	1.56 (≈ 3.97 µM)	0.2 (≈ 0.508 µM)	1.56 (≈ 3.97 µM)	0.1 (≈ 0.254 µM)	1.56 (≈ 3.97 µM)	0.025 (≈ 0.0636 µM)	0.05 (≈ 0.127 µM)	1.56 (≈ 3.97 µM)	1.56 (≈ 3.97 µM)	MIC ([1]; E14): 0.1 µg/mL (≈ 0.254 µM); MIC [2]: 0.05 µg/mL (≈ 0.127 µM); MIC ([3]; 308A1): 0.05 µg/mL (≈ 0.127 µM); MIC (E. coli KC-14 [5]; Table 2, read-out: MIC): 0.05 µg/mL; MIC ([10]; IFO12937): 0.78 µg/mL (≈ 1.98 µM); MIC ([11]; LS101): 0.1 µg/mL (≈ 0.254 µM); MIC ([12]; ATCC12983): 0.05 µg/mL (≈ 0.127 µM); MIC [19]: 0.2 µg/mL (≈ 0.508 µM); MIC ([20]; IFO12582): 3.13 µg/mL (≈ 7.96 µM); MIC ([21]; IFO3895): 0.39 µg/mL (≈ 0.991 µM); MIC (Klebsiella pneumoniae DT): 0.2 µg/mL (≈ 0.508 µM); MIC ([22]; ATCC13006): 0.39 µg/mL (≈ 0.991 µM); MIC [24]: 0.2 µg/mL (≈ 0.508 µM); MIC ([28]; IFO13956): 0.2 µg/mL (≈ 0.508 µM); MIC ([29]; S8): 0.1 µg/mL (≈ 0.254 µM)
CC1COc2c(N3CCN(C)CC3)c(F)cc3c(=O)c(C(=O)O)cn1c23 (centres unmarked) [OFLX, 9-fluoro-3-methyl-10-(4-methyl-1-piperazinyl)-7-oxo-2,3-dihydro-7H-pyrido[1,2,3-de][1,4]-benzoxazine-6-carboxylic acid]	3.13 (≈ 8.66 µM)	0.2	0.78	1.56	0.78	0.018(0.013-0.026) mg/mouse	1.432(1.006-2.393) mg/mouse	0.380(0.253-0.601) mg/mouse	> 2 mg/mouse	0.459(0.257-0.661) mg/mouse	0.78 (≈ 2.16 µM)	0.05 (≈ 0.138 µM)	1.56 (≈ 4.32 µM)	0.05 (≈ 0.138 µM)	0.78 (≈ 2.16 µM)	0.05 (≈ 0.138 µM)	0.025 (≈ 0.0692 µM)	0.78 (≈ 2.16 µM)	0.78 (≈ 2.16 µM)	MIC ([1]; E14, inoculum 10^6 cells/ml, 10% horse blood-added medium, read-out: MIC): 0.78 µg/mL (≈ 2.16 µM); MIC [2, 30]: 0.78 µg/mL (≈ 2.16 µM); MIC ([3]; 308A1, inoculum 10^6 cells/ml, read-out: MIC): 0.39 µg/mL (≈ 1.08 µM); MIC (E. coli KC-14 [5]): 0.025 µg/mL; MIC ([10]; IFO12937, inoculum 10^6 cells/ml, read-out: MIC): 0.39 µg/mL (≈ 1.08 µM); MIC ([11]; LS101, inoculum 10^6 cells/ml, 10% horse blood-added medium, read-out: MIC): 0.78 µg/mL (≈ 2.16 µM); MIC ([12]; ATCC12983, inoculum 10^6 cells/ml, 10% horse blood-added medium, read-out: MIC): 0.39 µg/mL (≈ 1.08 µM); MIC [19, 31]: 1.56 µg/mL (≈ 4.32 µM); MIC ([20]; IFO12582, inoculum 10^6 cells/ml, read-out: MIC): 1.56 µg/mL (≈ 4.32 µM); MIC ([21]; IFO3895, inoculum 10^6 cells/ml, 10% horse blood-added medium, read-out: MIC): 0.2 µg/mL (≈ 0.553 µM); MIC (Klebsiella pneumoniae DT; [31]): 0.1 µg/mL (≈ 0.277 µM); MIC ([22]; ATCC13006, inoculum 10^6 cells/ml, read-out: MIC): 0.2 µg/mL (≈ 0.553 µM); MIC [24, 30]: 1.56 µg/mL (≈ 4.32 µM); MIC ([28]; IFO13956, inoculum 10^6 cells/ml, 10% horse blood-added medium, read-out: MIC): 3.13 µg/mL (≈ 8.66 µM); MIC ([29]; S8, inoculum 10^6 cells/ml, 10% horse blood-added medium, read-out: MIC): 0.78 µg/mL (≈ 2.16 µM)
